Data taken from patent US20220016061A1, “Preparation Stabilized by Means of Nonaqueous Solvent” (MEDRx Co., Ltd., priority 2018, published 2022).
Structures can show the parent of a compound that is named as a salt.

Key:
[1] = Assessment of stability of baclofen hydrochloride solution (Example 3); type: physicochemical; details: water, NMP, propylene glycol, glycerin; 50° C.
Protocol: Baclofen (10.0 g) was dissolved in 10% hydrochloric acid (20 g), the solvent in the prepared solution was frozen, and then the frozen product was dried in a lyophilizer overnight to give baclofen hydrochloride.
The resulting baclofen hydrochloride was dissolved in water, NMP (N-methylpyrrolidone), propylene glycol or glycerin to prepare each solution comprising baclofen hydrochloride in an amount of 0.25% by weight. Each of the prepared solutions was stored at 50° C. and the contexts of baclofen and ring products thereof in the solutions were measured after 1 and 2 weeks of the storage to assess the stability of baclofen.

[2] = Solubility of baclofen in solvents; type: physicochemical
Description: The concentration of baclofen was insufficient to be used as an external preparation.

| stability when dissolved in the solvents [1] | solubility in 10% hydrochloric acid ([2]; 10% hydrochloric acid) | solubility in lactic acid ([2]; lactic acid) | solubility in water ([2]; water) | Compound |
| --- | --- | --- | --- | --- |
| stable | – | – | – | NCC(CC(=O)O)c1ccc(Cl)cc1 (stereo not shown) [Baclofen hydrochloride] |
| – | about 39% | about 33% | about 0.27% | NCC(CC(=O)O)c1ccc(Cl)cc1 (stereo not shown) [baclofen, 4-amino-3-(4-chloropehnyl)butanoic acid] |
